Tested on: 485368-065-R3-J5-PDC spheroids with HUVEC/MSC, viability
Test: Anticancer human tumor 485368-065-R3-J5-PDC patient-derived pancreatic carcinoma cell line growth inhibition [RAS]
Details: for IC50: curve of first compound; for viability, T/C: stronger effect = lower value
How it was run: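 Multi-cell-type spheroids: tumor cells plus HUVEC endothelial cells and mesenchymal stem cells. RAS-pathway inhibitors were combined with targeted agents, each dosed in half-log steps down from clinical Cmax, or from 10 microM when Cmax was unknown.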

[1] = second compound 0.0316 µM, first compound 0.000949 µM
[2] = second compound 0.0316 µM, first compound 0.003 µM
[3] = second compound 0.0316 µM, first compound 0.00949 µM
[4] = second compound 0.0316 µM, first compound 0.03 µM
[5] = second compound 0.0316 µM, first compound 0.0949 µM
[6] = second compound 0.0316 µM, first compound 0.3 µM
[7] = second compound 0.1 µM, first compound 0.000949 µM
[8] = second compound 0.1 µM, first compound 0.003 µM
[9] = second compound 0.1 µM, first compound 0.00949 µM
[10] = second compound 0.1 µM, first compound 0.03 µM
[11] = second compound 0.1 µM, first compound 0.0949 µM
[12] = second compound 0.1 µM, first compound 0.3 µM
[13] = second compound 0.316 µM, first compound 0.000949 µM
[14] = second compound 0.316 µM, first compound 0.003 µM
[15] = second compound 0.316 µM, first compound 0.00949 µM
[16] = second compound 0.316 µM, first compound 0.03 µM
[17] = second compound 0.316 µM, first compound 0.0949 µM
[18] = second compound 0.316 µM, first compound 0.3 µM
[19] = second compound 1 µM, first compound 0.000949 µM
[20] = second compound 1 µM, first compound 0.003 µM
[21] = second compound 1 µM, first compound 0.00949 µM
[22] = second compound 1 µM, first compound 0.03 µM
[23] = second compound 1 µM, first compound 0.0949 µM
[24] = second compound 1 µM, first compound 0.3 µM
[25] = second compound 3.16 µM, first compound 0.000949 µM
[26] = second compound 3.16 µM, first compound 0.003 µM
[27] = second compound 3.16 µM, first compound 0.00949 µM
[28] = second compound 3.16 µM, first compound 0.03 µM
[29] = second compound 3.16 µM, first compound 0.0949 µM
[30] = second compound 3.16 µM, first compound 0.3 µM
[31] = second compound 10 µM, first compound 0.000949 µM
[32] = second compound 10 µM, first compound 0.003 µM
[33] = second compound 10 µM, first compound 0.00949 µM
[34] = second compound 10 µM, first compound 0.03 µM
[35] = second compound 10 µM, first compound 0.0949 µM
[36] = second compound 10 µM, first compound 0.3 µM
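Also: spheroids exposed to agents for seven days before readout.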

`C=CC(=O)N1CCN(c2nc(OCC3CCCN3C)nc3c(F)c(-c4nc(N)cc(C)c4C(F)(F)F)c(Cl)cc23)C(C)C1` (stereo unspecified) + C#Cc1c(F)ccc2cc(O)cc(-c3ncc4c(N5CC6CCC(C5)N6)nc(OCC56CCCN5CC(F)C6)nc4c3F)c12 gave an IC50 (second compound 0.0316 µM) of over 1000 nM, an IC50 (second compound 0.1 µM) of over 1000 nM and an IC50 (second compound 0.316 µM) of over 1000 nM. It also gave an IC50 (second compound 1 µM) of over 1000 nM, an IC50 (second compound 3.16 µM) of 794 nM and an IC50 (second compound 10 µM) of under 3.16 nM. The viability, T/C (second compound 0.0316 µM, first compound 0.00316 µM) was 101%, the viability, T/C (second compound 0.0316 µM, first compound 0.01 µM) was 95.6% and the viability, T/C (second compound 0.0316 µM, first compound 0.0316 µM) was 112%. It also gave a viability, T/C (second compound 0.0316 µM, first compound 0.1 µM) of 106%, a viability, T/C (second compound 0.0316 µM, first compound 0.316 µM) of 100% and a viability, T/C (second compound 0.0316 µM, first compound 1 µM) of 107%. For the same molecule, the viability, T/C (second compound 0.1 µM, first compound 0.00316 µM) was 102%, the viability, T/C (second compound 0.1 µM, first compound 0.01 µM) was 100% and the viability, T/C (second compound 0.1 µM, first compound 0.0316 µM) was 106%. The viability, T/C (second compound 0.1 µM, first compound 0.1 µM) was 101%, the viability, T/C (second compound 0.1 µM, first compound 0.316 µM) was 117% and the viability, T/C (second compound 0.1 µM, first compound 1 µM) was 110%. For the same molecule, the viability, T/C (second compound 0.316 µM, first compound 0.00316 µM) was 105%, the viability, T/C (second compound 0.316 µM, first compound 0.01 µM) was 104% and the viability, T/C (second compound 0.316 µM, first compound 0.0316 µM) was 93.6%. For the same molecule, the viability, T/C (second compound 0.316 µM, first compound 0.1 µM) was 98.5%, the viability, T/C (second compound 0.316 µM, first compound 0.316 µM) was 103% and the viability, T/C (second compound 0.316 µM, first compound 1 µM) was 101%. For the same molecule, the viability, T/C (second compound 1 µM, first compound 0.00316 µM) was 94.3%, the viability, T/C (second compound 1 µM, first compound 0.01 µM) was 95.9% and the viability, T/C (second compound 1 µM, first compound 0.0316 µM) was 98.7%. The viability, T/C (second compound 1 µM, first compound 0.1 µM) was 97.6%, the viability, T/C (second compound 1 µM, first compound 0.316 µM) was 94.8% and the viability, T/C (second compound 1 µM, first compound 1 µM) was 72.1%. The viability, T/C (second compound 3.16 µM, first compound 0.00316 µM) was 89.7%, the viability, T/C (second compound 3.16 µM, first compound 0.01 µM) was 83.2% and the viability, T/C (second compound 3.16 µM, first compound 0.0316 µM) was 81.7%. It also gave a viability, T/C (second compound 3.16 µM, first compound 0.1 µM) of 72.3%, a viability, T/C (second compound 3.16 µM, first compound 0.316 µM) of 71.2% and a viability, T/C (second compound 3.16 µM, first compound 1 µM) of 44.4%. It also gave a viability, T/C (second compound 10 µM, first compound 0.00316 µM) of 38.1%, a viability, T/C (second compound 10 µM, first compound 0.01 µM) of 40.3% and a viability, T/C (second compound 10 µM, first compound 0.0316 µM) of 38.3%. The viability, T/C (second compound 10 µM, first compound 0.1 µM) was 41.7%, the viability, T/C (second compound 10 µM, first compound 0.316 µM) was 36.5% and the viability, T/C (second compound 10 µM, first compound 1 µM) was 36.6%.
In the case of `CC1(C)CCC(Nc2ncc(C(F)(F)F)c(-c3c[nH]c4c(P(C)(C)=O)c(C#N)ccc34)n2)CN1` (stereo unspecified) + C#Cc1c(F)ccc2cc(O)cc(-c3ncc4c(N5CC6CCC(C5)N6)nc(OCC56CCCN5CC(F)C6)nc4c3F)c12, the IC50 (second compound 0.0316 µM) is reported as 3.18 nM, the IC50 (second compound 0.1 µM) is reported as 3.83 nM and the IC50 (second compound 0.316 µM) is reported as 4.39 nM. The IC50 (second compound 1 µM) was 4.77 nM, the IC50 (second compound 3.16 µM) was 4.85 nM and the IC50 (second compound 10 µM) was under 0.949 nM. For the same molecule, the viability, T/C [1] was 89.8%, the viability, T/C [2] was 51.1% and the viability, T/C [3] was 33.6%. For the same molecule, the viability, T/C [4] was 31%, the viability, T/C [5] was 27.3% and the viability, T/C [6] was 30.2%. For the same molecule, the viability, T/C [7] was 92.7%, the viability, T/C [8] was 53.2% and the viability, T/C [9] was 38.5%. It also gave a viability, T/C [10] of 29.4%, a viability, T/C [11] of 27.7% and a viability, T/C [12] of 33.6%. For the same molecule, the viability, T/C [13] was 91.5%, the viability, T/C [14] was 56.4% and the viability, T/C [15] was 36.4%. It also gave a viability, T/C [16] of 33.6%, a viability, T/C [17] of 30.1% and a viability, T/C [18] of 28.8%. The viability, T/C [19] was 85.2%, the viability, T/C [20] was 55.8% and the viability, T/C [21] was 40.7%. It also gave a viability, T/C [22] of 36%, a viability, T/C [23] of 30.8% and a viability, T/C [24] of 31.1%. It also gave a viability, T/C [25] of 72.3%, a viability, T/C [26] of 56.3% and a viability, T/C [27] of 41.2%. The viability, T/C [28] was 36.5%, the viability, T/C [29] was 36.9% and the viability, T/C [30] was 35.6%. It also gave a viability, T/C [31] of 41.6%, a viability, T/C [32] of 38.1% and a viability, T/C [33] of 31.4%. It also gave a viability, T/C [34] of 35.4%, a viability, T/C [35] of 30.4% and a viability, T/C [36] of 27.8%.
Molecule `CCc1c2c(nc3ccc(O)cc13)-c1cc3c(c(=O)n1C2)COC(=O)[C@]3(O)CC` + C#Cc1c(F)ccc2cc(O)cc(-c3ncc4c(N5CC6CCC(C5)N6)nc(OCC56CCCN5CC(F)C6)nc4c3F)c12 has an IC50 (second compound 0.0316 µM) of 2.01 nM, an IC50 (second compound 0.1 µM) of 2.04 nM and an IC50 (second compound 0.316 µM) of 2.04 nM. The IC50 (second compound 1 µM) was 2.19 nM, the IC50 (second compound 3.16 µM) was 1.66 nM and the IC50 (second compound 10 µM) was under 0.949 nM. It also gave a viability, T/C [1] of 79.6%, a viability, T/C [2] of 34% and a viability, T/C [3] of 14.3%. For the same molecule, the viability, T/C [4] was 7.01%, the viability, T/C [5] was 5.19% and the viability, T/C [6] was 2.88%. The viability, T/C [7] was 82.5%, the viability, T/C [8] was 33.7% and the viability, T/C [9] was 12.5%. The viability, T/C [10] was 7.37%, the viability, T/C [11] was 4.36% and the viability, T/C [12] was 3.26%. The viability, T/C [13] was 82.5%, the viability, T/C [14] was 33.4% and the viability, T/C [15] was 13.3%. It also gave a viability, T/C [16] of 5.82%, a viability, T/C [17] of 5.07% and a viability, T/C [18] of 3.14%. The viability, T/C [19] was 91.2%, the viability, T/C [20] was 33.6% and the viability, T/C [21] was 14.8%. For the same molecule, the viability, T/C [22] was 6.95%, the viability, T/C [23] was 4.29% and the viability, T/C [24] was 3.15%. It also gave a viability, T/C [25] of 71.5%, a viability, T/C [26] of 26.7% and a viability, T/C [27] of 12.9%. It also gave a viability, T/C [28] of 7.69%, a viability, T/C [29] of 4.04% and a viability, T/C [30] of 2.84%. It also gave a viability, T/C [31] of 28.2%, a viability, T/C [32] of 19.4% and a viability, T/C [33] of 11.2%. The viability, T/C [34] was 5.94%, the viability, T/C [35] was 3.93% and the viability, T/C [36] was 3.41%.
